In US8492371B2, “Compounds as cannabinoid receptor ligands” (priority 2009, dated 2013) one finds Ki data, which are given here for 22 compounds.

Each structure is given as a SMILES string. Like-named read-outs stand apart in the source and are kept apart here.

One test addresses T1, rat CB2 receptors (Rattus norvegicus, UniProt Q9QZN9).
T1 construct: expressed in transfected cells; host or cells: HEK293
T1 sequence (Q9QZN9 1-360): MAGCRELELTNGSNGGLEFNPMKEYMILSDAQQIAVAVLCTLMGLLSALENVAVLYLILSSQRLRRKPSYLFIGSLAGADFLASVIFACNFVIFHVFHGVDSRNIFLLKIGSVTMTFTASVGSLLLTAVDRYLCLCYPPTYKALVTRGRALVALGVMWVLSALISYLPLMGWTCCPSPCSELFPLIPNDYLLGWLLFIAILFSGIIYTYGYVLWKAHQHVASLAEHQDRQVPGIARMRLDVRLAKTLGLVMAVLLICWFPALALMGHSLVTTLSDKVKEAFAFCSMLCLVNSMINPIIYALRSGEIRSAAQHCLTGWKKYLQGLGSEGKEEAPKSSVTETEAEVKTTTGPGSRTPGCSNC
Put plainly: Rat CB2 radioligand binding assay ([3H]CP-55,940 competition). The essentials:
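Membranes from HEK293 cells stably expressing rat CB2 (20 μg/well) incubated 45 min at 30 °C with 0.5 nM [3H]CP-55,940 and five competitor concentrations in Tris/EDTA/MgCl2 buffer with 0.5 mg/mL BSA, pH 7.4. Filtration and scintillation counting; nonspecific binding with 10 μM unlabeled CP-55,940.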

The target of another test is T2, human CB2 receptors (Homo sapiens, UniProt P34972).
T2 construct: expressed in transfected cells; host or cells: HEK293
Briefly: Human CB2 radioligand binding assay ([3H]CP-55,940 competition). The essentials: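 Membranes from HEK293 cells stably expressing human CB2 (5 μg/well) incubated 90 min at 30 °C with 0.5 nM [3H]CP-55,940 and five concentrations of displacer (0.01 nM–10 μM) in pH 7.4 Tris/EDTA/MgCl2 buffer with fatty acid free BSA. Bound radioactivity counted after filtration; nonspecific binding defined with 10 μM unlabeled CP-55,940.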

[1] abbreviates: HEK293 membranes, 0.5 nM [3H]CP-55,940, read-out: human CB2 Ki.

For orientation: Ki means the dissociation constant of the complex between target and ligand, obtained from inhibition or displacement.

T2 sequence (P34972 whole entry): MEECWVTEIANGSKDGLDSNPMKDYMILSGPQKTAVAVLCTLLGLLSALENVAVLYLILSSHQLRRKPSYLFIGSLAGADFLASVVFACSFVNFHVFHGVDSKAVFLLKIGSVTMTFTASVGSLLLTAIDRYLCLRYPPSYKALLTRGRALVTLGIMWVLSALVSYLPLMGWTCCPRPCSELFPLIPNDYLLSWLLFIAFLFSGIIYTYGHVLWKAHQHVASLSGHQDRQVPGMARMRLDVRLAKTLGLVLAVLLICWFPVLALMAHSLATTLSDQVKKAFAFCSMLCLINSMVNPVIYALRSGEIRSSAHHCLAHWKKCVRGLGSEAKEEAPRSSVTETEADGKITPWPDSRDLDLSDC

In the case of `COc1ccc(C(F)(F)F)cc1C(=O)/N=c1\cc(C(C)(C)C)n(C)n1CC1CCOC1` (centres unmarked) [Example 85, N-[(3E)-5-tert-butyl-1-methyl-2-(tetrahydrofuran-3-ylmethyl)-1,2-dihydro-3H-pyrazol-3-ylidene]-2-methoxy-5-(trifluoromethyl)benzamide], the results for the Ki on rat CB2 receptors and at human CB2 receptors were 13 nM and 87 nM, respectively.
For the compound `Cc1ccc(C(F)(F)F)cc1C(=O)/N=c1\cc(C(C)(C)C)n(C)n1C[C@H]1CCCO1` [Example 86], the inhibitory constant (Ki) worked out at 3.3 nM on rat CB2 receptors and 11 nM at human CB2 receptors.
With `Cn1c(C(C)(C)C)c/c(=N\C(=O)c2cc(C(F)(F)F)ccc2Br)n1C[C@H]1CCCO1` [Example 88, 2-bromo-N-{(3E)-5-tert-butyl-1-methyl-2-[(2R)-tetrahydrofuran-2-ylmethyl]-1,2-dihydro-3H-pyrazol-3-ylidene}-5-(trifluoromethyl)benzamide], the results for the Ki at rat CB2 receptors and at human CB2 receptors were 5.4 nM and 20 nM, respectively.
As for `COC/C=C/c1ccc(C(F)(F)F)cc1C(=O)/N=c1\cc(C(C)(C)C)n(C)n1C[C@H]1CCCO1` [Example 89, N-{(3E)-5-tert-butyl-1-methyl-2-[(2R)-tetrahydrofuran-2-ylmethyl]-1,2-dihydro-3H-pyrazol-3-ylidene}-2-[(1E)-3-methoxyprop-1-enyl]-5-(trifluoromethyl)benzamide], the Ki on rat CB2 receptors came to 5.8 nM; on human CB2 receptors, 9.8 nM.
Take `COCCCc1ccc(C(F)(F)F)cc1C(=O)/N=c1\cc(C(C)(C)C)n(C)n1C[C@H]1CCCO1` [Example 90, N-{(3E)-5-tert-butyl-1-methyl-2-[(2R)-tetrahydrofuran-2-ylmethyl]-1,2-dihydro-3H-pyrazol-3-ylidene}-2-(3-methoxypropyl)-5-(trifluoromethyl)benzamide]: the Ki at rat CB2 receptors was 3 nM; at human CB2 receptors it was 3.5 nM.
In the case of `COc1ccc(Cl)cc1C(=O)/N=c1\sc(C(C)(C)C)nn1C[C@H]1COC(=O)N1` [Example 91, N-[(2Z)-5-tert-butyl-3-{[(4S)-2-oxo-1,3-oxazolidin-4-yl]methyl}-1,3,4-thiadiazol-2(3H)-ylidene]-5-chloro-2-methoxybenzamide], the results for the Ki on rat CB2 receptors and at human CB2 receptors (setting [1]) were 30 nM and 203 nM, respectively.
As for `CC(C)=CCOc1ccc(C(F)(F)F)cc1C(=O)/N=c1\cc(C(C)(C)C)n(C)n1C[C@H]1CCCO1` [Example 93, N-{(3E)-5-tert-butyl-1-methyl-2-[(2R)-tetrahydrofuran-2-ylmethyl]-1,2-dihydro-3H-pyrazol-3-ylidene}-2-[(3-methylbut-2-enyl)oxy]-5-(trifluoromethyl)benzamide], the Ki on rat CB2 receptors worked out at 15 nM; on human CB2 receptors it was 17 nM.
`Cn1c(C(C)(C)C)c/c(=N\C(=O)c2cc(C(F)(F)F)ccc2OCCC2(O)CCCC2)n1C[C@H]1CCCO1` [Example 94, N-{(3E)-5-tert-butyl-1-methyl-2-[(2R)-tetrahydrofuran-2-ylmethyl]-1,2-dihydro-3H-pyrazol-3-ylidene}-2-[2-(1-hydroxycyclopentyl)ethoxy]-5-(trifluoromethyl)benzamide]: the Ki is 3.3 nM on rat CB2 receptors and 2.6 nM at human CB2 receptors.
With `Cn1c(C(C)(C)C)c/c(=N\C(=O)c2cc(F)cc(C(F)(F)F)c2)n1C[C@H]1CCCO1` [Example 96, N-{(3E)-5-tert-butyl-1-methyl-2-[(2R)-tetrahydrofuran-2-ylmethyl]-1,2-dihydro-3H-pyrazol-3-ylidene}-3-fluoro-5-(trifluoromethyl)benzamide], the Ki at rat CB2 receptors was found to be 3.7 nM; at human CB2 receptors it was 13 nM.
`CN1CC[C@H](Oc2ccc(C(F)(F)F)cc2C(=O)/N=c2\sc(C(C)(C)C)nn2C[C@H]2CCCO2)C1` [Example 97, N-[(2Z)-5-tert-butyl-3-[(2R)-tetrahydrofuran-2-ylmethyl]-1,3,4-thiadiazol-2(3 H)-ylidene]-2-{[(3S)-1-methylpyrrolidin-3-yl]oxy}-5-(trifluoromethyl)benazmide]: the Ki at rat CB2 receptors came to 46 nM; on human CB2 receptors it was 63 nM.
Consider `CN1CC[C@H](Oc2ccc(C(F)(F)F)cc2C(=O)/N=c2\oc(C(C)(C)C)cn2C[C@H]2CCCO2)C1` [Example 98, N-[(2Z)-5-tert-butyl-3-[(2R)-tetrahydrofuran-2-ylmethyl]-1,3-oxazol-2(3 H)-ylidene]-2-{[(3S)-1-methylpyrrolidin-3-yl]oxy}-5-(trifluoromethyl)benzamide], for which the values for the inhibitory constant (Ki) on rat CB2 receptors and on human CB2 receptors (setting [1]) were 88 nM and 261 nM, respectively.
On to `C/C=C/c1ccc(C(F)(F)F)cc1C(=O)/N=c1\cc(C(C)(C)C)n(C)n1C[C@H]1CCCO1` [Example 99, N-{(3E)-5-tert-butyl-1-methyl-2-[(2R)-tetrahydrofuran-2-ylmethyl]-1,2-dihydro-3H-pyrazol-3-ylidene}-2-[(1E)-prop-1-enyl]-5-(trifluoromethyl)benazmide], for which the Ki at rat CB2 receptors was determined as 3.5 nM; at human CB2 receptors it was 12 nM.
For the compound `Cn1c(C(C)(C)C)c/c(=N\C(=O)c2cc(C(F)(F)F)ccc2/C=C/C(C)(C)O)n1C[C@H]1CCCO1` [Example 100, N-{(3E)-5-tert-butyl-1-methyl-2-[(2R)-tetrahydrofuran-2-ylmethyl]-1,2-dihydro-3H-pyrazol-3-ylidene}-2-[(1E)-3-hydroxy-3-methylbut-1-enyl]-5-(trifluoromethyl)benzamide], the inhibition constant (Ki) was found to be 1.1 nM at rat CB2 receptors and 3.2 nM on human CB2 receptors.
As for `Cn1c(C(C)(C)C)c/c(=N\C(=O)c2cc(C(F)(F)F)ccc2CCC(C)(C)O)n1C[C@H]1CCCO1` [Example 101, N-{(3E)-5-tert-butyl-1-methyl-2-[(2R)-tetrahydrofuran-2-ylmethyl]-1,2-dihydro-3H-pyrazol-3-ylidene}-2-(3-hydroxy-3-methylbutyl)-5-(trifluoromethyl)benazmide], the Ki at rat CB2 receptors worked out at 34 nM; at human CB2 receptors it was 49 nM.
With `Cn1c(C2(C)CC2)c/c(=N\C(=O)c2cc(C(F)(F)F)ccc2OCC2(O)CCC2)n1C[C@H]1CCCO1` [Example 102, 2-[(1-hydroxycyclobutyl)methoxy]-N-{(3E)-1-methyl-5-(1-methylcyclopropyl)-2-[(2 R)-tetrahydrofuran-2-ylmethyl]-1,2-dihydro-3H-pyrazol-3-ylidene}-5-(trifluoromethyl)benzamide], the Ki at rat CB2 receptors came to 11 nM; at human CB2 receptors, 21 nM.
With `Cn1c(C(C)(C)C)c/c(=N\C(=O)c2cc(O)cc(C(F)(F)F)c2)n1C[C@H]1CCCO1` [Example 103, N-{(3E)-5-tert-butyl-1-methyl-2-[(2R)-tetrahydrofuran-2-ylmethyl]-1,2-dihydro-3H-pyrazol-3-ylidene}-3-hydroxy-5-(trifluoromethyl)benzamide], the figures for the Ki on rat CB2 receptors and at human CB2 receptors were 4.4 nM and 16 nM, respectively.
For the compound `Cn1c(C(C)(C)C)c/c(=N\C(=O)c2cc(Br)cc(C(F)(F)F)c2)n1C[C@H]1CCCO1` [Example 104, 3-bromo-N-{(3E)-5-tert-butyl-1-methyl-2-[(2R)-tetrahydrofuran-2-ylmethyl]-1,2-dihydro-3H-pyrazol-3-ylidene}-5-(trifluoromethyl)benzamide], the Ki stood at 9.3 nM at rat CB2 receptors and 46 nM on human CB2 receptors.
The matching figures for `Cn1c(C(C)(C)C)c/c(=N\C(=O)c2cc(OCCF)cc(C(F)(F)F)c2)n1C[C@H]1CCCO1` [Example 105, N-{(3E)-5-tert-butyl-1-methyl-2-[(2R)-tetrahydrofuran-2-ylmethyl]-1,2-dihydro-3H-pyrazol-3-ylidene}-3-(2-fluoroethoxy)-5-(trifluoromethyl)benazmide]: 10 nM and 69 nM.
As to `Cn1c(C(C)(C)C)c/c(=N\C(=O)c2cc([N+](=O)[O-])cc(C(F)(F)F)c2)n1C[C@H]1CCCO1` [Example 106, N-{(3E)-5-tert-butyl-1-methyl-2-[(2R)-tetrahydrofuran-2-ylmethyl]-1,2-dihydro-3H-pyrazol-3-ylidene}-3-nitro-5-(trifluoromethyl)benzamide], the Ki on rat CB2 receptors came to 63 nM; on human CB2 receptors (setting [1]), 168 nM.
Regarding `Cn1c(C(C)(C)C)c/c(=N\C(=O)c2cc(N)cc(C(F)(F)F)c2)n1C[C@H]1CCCO1` [Example 107, 3-amino-N-{(3E)-5-tert-butyl-1-methyl-2-[(2R)-tetrahydrofuran-2-ylmethyl]-1,2-dihydro-3H-pyrazol-3-ylidene}-5-(trifluoromethyl)benzamide], the figures for the Ki on rat CB2 receptors and on human CB2 receptors were 4.8 nM and 11 nM, respectively.
The matching figures for `CN(C)CCOc1ccc(C(F)(F)F)cc1C(=O)/N=c1\oc(C(C)(C)C)cn1C[C@H]1CCCO1` [Example 108, N-[(2Z)-5-tert-butyl-3-[(2R)-tetrahydrofuran-2-ylmethyl]-1,3-oxazol-2(3 H)-ylidene]-2-[2-(dimethylamino)ethoxy]-5-(trifluoromethyl)benzamide]: 55 nM and 148 nM.
On to `Cn1c(C(C)(C)C)c/c(=N\C(=O)c2cc(C(F)(F)F)ccc2/C=N\OC(C)(C)C)n1C[C@H]1CCCO1` [Example 109, 2-[(Z)-(tert-butoxyimino)methyl]-N-{(3E)-5-tert-butyl-1-methyl-2-[(2R)-tetrahydrofuran-2-ylmethyl]-1,2-dihydro-3H-pyrazol-3-ylidene}-5-(trifluoromethyl)benzamide], for which the Ki worked out at 15 nM at rat CB2 receptors and 23 nM at human CB2 receptors.
